Results published in EP0326418A1, “GRF analogs” (THE UPJOHN COMPANY, priority 1988, dated 1989).
Like-named read-outs stand apart in the source and are kept apart here. Where a SMILES comes first, the peptide text is derived from it. Where no end group is shown, it is not given here. [ ]: non-standard residue; d: D form. The star is where a group is joined. Desaminotyrosyl = O=C(CCc1ccc(O)cc1)*; Cya = N[C@@H](CS(=O)(=O)O)C(=O)O

How the values were obtained:
[1] = tested on: meal-fed Holstein steers; assay: serum growth hormone (GH) response after intravenous injection in steers (Procedure B); assay type: in vivo; details: for relative growth hormone areas: in comparison to the standard bGRF(1-44)NH₂ (Area 100%), procedure B, second study; for area under the GH response curve: in comparison to bGRF(1-44)NH₂ (100%), first study; for serum growth hormone (GH) response, difference from Leu²⁷ bGRF(1-32)NH₂: compared with Leu²⁷ bGRF(1-32)NH₂
Description: The synthetic peptides prepared in Examples 1, 2 and 3 (Compounds 1, 2 and 3 respectively), bGRF(1-44)NH2 and […] bGRF(1-32)NH2 were also given to meal-fed Holstein steers by intravenous injection (Procedure B) and the serum growth hormone (GH) response evaluated. […] In comparison to bGRF(1-44)NH2 (100%), the area under the GH response curve was 122% for […] bGRF(1-32)NH2, 100% for Compound #1, 106% for Compound #2, and 111% for Compound #3. Holstein steers (265 +/- 5kg) were housed in individual stalls 18-20°C) and exposed to 16h light:8h darkness (lights on at 0400h). Steers are meal-fed once daily at 1000h and trained to consume their total daily feed intake in 2 h. The diet consisted of rolled corn plus a mineral/vitamin premix and alfalfa hay cubes fed at 160% maintenance energy requirements on a bodyweight basis. Steers gained approximately 0.75 kg/h/d. In a 5 x […] Latin Square design 10 steers were assigned randomly to receive the following treatments. (a) bGRF(1-44)NH2, (b) […] bGRF(1-32)NH2, (c) Compound #3, (d) Compound #1, and (e) Compound #2. The GRFs were dissolves in saline (10μg/ml) and administered at 3nM/100 kg bodyweight as single iv injection at 0800 h, 2 h between feeding. A cannula was inserted into a jugular vein at least one day before treatment. Blood (6 ml) was collected at 20-min interval from 40 min before until 120 min after injection with additional samples collected at 5, 10 and 15 min after injection. Serum obtained from the samples was assayed from GH concentration. The number of steers responding to injection fo the various GRFs tested (P=0.42) ranged from 9 of 10 to 10 of 10 depending on the treatment. Using procedure B, compounds were tested for growth hormone release in steers. In comparison to the standard bGRF(1-44)NH2 (Area 100%), the test compounds gave the following relative growth hormone areas: Compound 4, 233%; compound 5, 140%; compound 6, 160%; compound 7, 126%; compound 8, 307%; compound 9, 260%; and compound 11, 173%.

[2] = tested on: bovine anterior pituitary cell culture; assay type: cell-based; details: for potency (in words): summary of the bovine pituitary cell culture assays
[3] = proteolytic stability in bovine plasma (HPLC, modified Frohman method); details: for remaining at 1 h: bovine plasma; for proteolytic stability in bovine plasma (in words): summary
[4] = subsequent assay, potency as a fraction of bGRF(1-44)NH₂
[5] = 3nM/100 kg bodyweight, single iv injection
[6] = first assay, potency as a fraction of bGRF(1-44)NH₂

Compound | relative growth hormone areas [1] [%] | the potency of bGRF(1-44)NH₂ [2, 4] | potency (in words) [2] | remaining at 1 h [3] [%] | proteolytic stability in bovine plasma (in words) [3] | serum growth hormone (GH) response, difference from bGRF(1-44)NH₂ ([1]; 3nM/100 kg bodyweight, single iv injection, compared with bGRF(1-44)NH₂) | area under the GH response curve [1, 5] [%] | serum growth hormone (GH) response, difference from Leu²⁷ bGRF(1-32)NH₂ [1, 5] | the potency of bGRF(1-44)NH₂ [2, 6] | the potency of bGRF(1-44)NH₂ [2]
CC[C@H](C)[C@H](NC(=O)[C@H](C)NC(=O)[C@H](CS(=O)(=O)O)NC(=O)[C@H](C)NC(=O)CCc1ccc(O)cc1)C(=O)N[C@@H](Cc1ccccc1)C(=O)N[C@H](C(=O)N[C@@H](CC(N)=O)C(=O)N[C@@H](CO)C(=O)N[C@@H](Cc1ccc(O)cc1)C(=O)N[C@@H](CCCNC(=N)N)C(=O)N[C@@H](CCCCN)C(=O)N[C@H](C(=O)N[C@@H](CC(C)C)C(=O)N[C@@H](C)C(=O)N[C@@H](CCC(N)=O)C(=O)N[C@@H](CC(C)C)C(=O)N[C@@H](CO)C(=O)N[C@@H](C)C(=O)N[C@@H](CCCNC(=N)N)C(=O)N[C@@H](CCCCN)C(=O)N[C@@H](CC(C)C)C(=O)N[C@@H](CC(C)C)C(=O)N[C@@H](CCC(N)=O)C(=O)N[C@@H](CC(=O)O)C(=O)N[C@H](C(=O)N[C@@H](CC(C)C)C(=O)N[C@@H](CC(N)=O)C(=O)N[C@@H](CCCNC(=N)N)C(=O)N[C@@H](CCC(N)=O)C(=O)N[C@@H](CCC(N)=O)C(=O)NCC(N)=O)[C@@H](C)CC)C(C)C)[C@@H](C)O [Compound 9, Desamino-Tyr¹, Cya³, Ala¹⁵, Leu²⁷-bGRF(1-32)NH₂] (Desaminotyrosyl-A[Cya]AIFTNSYRKVLAQLSARKLLQDILNRQQG-NH2) | 260 | 2.24 | high potency | 81 | good stability |  |  |  |  | 
YADAIFTNSYRKVLGQLSARKLLQDILNRQQG-NH2 [Leu²⁷ bGRF(1-32)NH₂, reference compound] |  |  |  | 47 |  | No significant differences | 122 |  |  | 
Cya²⁵, Leu²⁷bGRF(1-32)NH₂ [Compound 1] |  |  |  |  |  |  | 100 | No significant differences | 0.53 | 
CC[C@H](C)[C@H](NC(=O)[C@H](C)NC(=O)[C@H](CS(=O)(=O)O)NC(=O)[C@@H](C)NC(=O)[C@@H](N)Cc1ccc(O)cc1)C(=O)N[C@@H](Cc1ccccc1)C(=O)N[C@H](C(=O)N[C@@H](CC(N)=O)C(=O)N[C@@H](CO)C(=O)N[C@@H](Cc1ccc(O)cc1)C(=O)N[C@@H](CCCNC(=N)N)C(=O)N[C@@H](CCCCN)C(=O)N[C@H](C(=O)N[C@@H](CC(C)C)C(=O)N[C@@H](C)C(=O)N[C@@H](CCC(N)=O)C(=O)N[C@@H](CC(C)C)C(=O)N[C@@H](CO)C(=O)N[C@@H](C)C(=O)N[C@@H](CCCNC(=N)N)C(=O)N[C@@H](CCCCN)C(=O)N[C@@H](CC(C)C)C(=O)N[C@@H](CC(C)C)C(=O)N[C@@H](CCC(N)=O)C(=O)N[C@@H](CC(=O)O)C(=O)N[C@H](C(=O)N[C@@H](CC(C)C)C(=O)N[C@@H](CC(N)=O)C(=O)N[C@@H](CCCNC(=N)N)C(=O)N[C@@H](CCC(N)=O)C(=O)N[C@@H](CCC(N)=O)C(=O)NCC(N)=O)[C@@H](C)CC)C(C)C)[C@@H](C)O [Compound 8, D-Ala², Cya³, Ala¹⁵, Leu²⁷-bGRF(1-32)NH₂] (H-Y[dA][Cya]AIFTNSYRKVLAQLSARKLLQDILNRQQG-NH2) | 307 |  | high potency | 95 | good stability |  |  |  |  | 1.34
CC[C@H](C)[C@H](NC(=O)[C@H](C)NC(=O)[C@H](CS(=O)(=O)O)NC(=O)[C@@H](C)NC(=O)[C@@H](N)Cc1ccc(O)cc1)C(=O)N[C@@H](Cc1ccccc1)C(=O)N[C@H](C(=O)N[C@@H](CC(N)=O)C(=O)N[C@@H](CO)C(=O)N[C@@H](Cc1ccc(O)cc1)C(=O)N[C@@H](CCCNC(=N)N)C(=O)N[C@@H](CCCCN)C(=O)N[C@H](C(=O)N[C@@H](CC(C)C)C(=O)NCC(=O)N[C@@H](CCC(N)=O)C(=O)N[C@@H](CC(C)C)C(=O)N[C@@H](CO)C(=O)N[C@@H](C)C(=O)N[C@@H](CCCNC(=N)N)C(=O)N[C@@H](CCCCN)C(=O)N[C@@H](CC(C)C)C(=O)N[C@@H](CC(C)C)C(=O)N[C@@H](CCC(N)=O)C(=O)N[C@@H](CC(=O)O)C(=O)N[C@H](C(=O)N[C@@H](CC(C)C)C(=O)N[C@@H](CC(N)=O)C(=O)N[C@@H](CCCNC(=N)N)C(=O)N[C@@H](CCC(N)=O)C(=O)N[C@@H](CCC(N)=O)C(=O)NCC(N)=O)[C@@H](C)CC)C(C)C)[C@@H](C)O [Compound 4, D-Ala², Cya³, Leu²⁷-bGRF(1-32)NH₂] (H-Y[dA][Cya]AIFTNSYRKVLGQLSARKLLQDILNRQQG-NH2) | 233 |  |  | 76 |  |  |  |  |  | 0.29
CC[C@H](C)[C@H](NC(=O)[C@H](C)NC(=O)[C@H](CS(=O)(=O)O)NC(=O)[C@H](C)NC(=O)[C@@H](N)Cc1ccc(O)cc1)C(=O)N[C@@H](Cc1ccccc1)C(=O)N[C@H](C(=O)N[C@@H](CC(N)=O)C(=O)N[C@@H](CO)C(=O)N[C@@H](Cc1ccc(O)cc1)C(=O)N[C@@H](CCCNC(=N)N)C(=O)N[C@@H](CCCCN)C(=O)N[C@H](C(=O)N[C@@H](CC(C)C)C(=O)NCC(=O)N[C@@H](CCC(N)=O)C(=O)N[C@@H](CC(C)C)C(=O)N[C@@H](CO)C(=O)N[C@@H](C)C(=O)N[C@@H](CCCNC(=N)N)C(=O)N[C@@H](CCCCN)C(=O)N[C@@H](CC(C)C)C(=O)N[C@@H](CC(C)C)C(=O)N[C@@H](CCC(N)=O)C(=O)N[C@@H](CC(=O)O)C(=O)N[C@H](C(=O)N[C@@H](CC(C)C)C(=O)N[C@@H](CC(N)=O)C(=O)N[C@@H](CCCNC(=N)N)C(=O)N[C@@H](CCC(N)=O)C(=O)N[C@@H](CCC(N)=O)C(=O)NCC(N)=O)[C@@H](C)CC)C(C)C)[C@@H](C)O [Compound 3, Cya³, Leu ²⁷bGRF(1-32)NH₂] (H-YA[Cya]AIFTNSYRKVLGQLSARKLLQDILNRQQG-NH2) |  | 0.41 |  | 42 |  |  | 111 | No significant differences | 0.31 | 
CC[C@H](C)[C@H](NC(=O)[C@H](C)NC(=O)[C@H](CS(=O)(=O)O)NC(=O)[C@@H](C)NC(=O)[C@@H](N)Cc1c[nH]cn1)C(=O)N[C@@H](Cc1ccccc1)C(=O)N[C@H](C(=O)N[C@@H](CC(N)=O)C(=O)N[C@@H](CO)C(=O)N[C@@H](Cc1ccc(O)cc1)C(=O)N[C@@H](CCCNC(=N)N)C(=O)N[C@@H](CCCCN)C(=O)N[C@H](C(=O)N[C@@H](CC(C)C)C(=O)N[C@@H](C)C(=O)N[C@@H](CCC(N)=O)C(=O)N[C@@H](CC(C)C)C(=O)N[C@@H](CO)C(=O)N[C@@H](C)C(=O)N[C@@H](CCCNC(=N)N)C(=O)N[C@@H](CCCCN)C(=O)N[C@@H](CC(C)C)C(=O)N[C@@H](CC(C)C)C(=O)N[C@@H](CCC(N)=O)C(=O)N[C@@H](CC(=O)O)C(=O)N[C@H](C(=O)N[C@@H](CC(C)C)C(=O)N[C@@H](CC(N)=O)C(=O)N[C@@H](CCCNC(=N)N)C(=O)N[C@@H](CCC(N)=O)C(=O)N[C@@H](CCC(N)=O)C(=O)NCC(N)=O)[C@@H](C)CC)C(C)C)[C@@H](C)O [Compound 11, His¹, D-Ala², Cya³, Ala¹⁵, Leu²⁷-bGRF(1-32)NH₂] (H-H[dA][Cya]AIFTNSYRKVLAQLSARKLLQDILNRQQG-NH2) | 173 |  |  | 86 |  |  |  |  |  | 0.28
CC[C@H](C)[C@H](NC(=O)[C@H](C)NC(=O)[C@H](CS(=O)(=O)O)NC(=O)[C@@H](C)NC(=O)[C@@H](N)Cc1c[nH]cn1)C(=O)N[C@@H](Cc1ccccc1)C(=O)N[C@H](C(=O)N[C@@H](CC(N)=O)C(=O)N[C@@H](CO)C(=O)N[C@@H](Cc1ccc(O)cc1)C(=O)N[C@@H](CCCNC(=N)N)C(=O)N[C@@H](CCCCN)C(=O)N[C@H](C(=O)N[C@@H](CC(C)C)C(=O)NCC(=O)N[C@@H](CCC(N)=O)C(=O)N[C@@H](CC(C)C)C(=O)N[C@@H](CO)C(=O)N[C@@H](C)C(=O)N[C@@H](CCCNC(=N)N)C(=O)N[C@@H](CCCCN)C(=O)N[C@@H](CC(C)C)C(=O)N[C@@H](CC(C)C)C(=O)N[C@@H](CCC(N)=O)C(=O)N[C@@H](CC(=O)O)C(=O)N[C@H](C(=O)N[C@@H](CC(C)C)C(=O)N[C@@H](CC(N)=O)C(=O)N[C@@H](CCCNC(=N)N)C(=O)N[C@@H](CCC(N)=O)C(=O)N[C@@H](CCC(N)=O)C(=O)NCC(N)=O)[C@@H](C)CC)C(C)C)[C@@H](C)O [Compound 7, His¹, D-Ala², Cya³, Leu²⁷-bGRF(1-32)NH₂] (H-H[dA][Cya]AIFTNSYRKVLGQLSARKLLQDILNRQQG-NH2) | 126 |  |  | 69 |  |  |  |  |  | 0.06
